Experimental data: patent US20110256298A1, “BEER AND BEER-BASED BEVERAGES AND METHOD OF MODIFICATION OF POLYPHENOLS AND SILICON CONTENT IN THESE BEVERAGES” (priority 2009, published 2011)
≈ marks a conversion by molar mass, not a printed value.

How the values were obtained:
[1] = physchem; type: physicochemical; details: for solubility thermodynamic: aqueous with cosolvent or surfactant or cyclodextrin, thermodynamic from solid
Excerpt: The equilibrium solubility of silymarin in two kinds of beer after the addition of the water-soluble mixture with the Silybum marianum polyphenols according to example 1 are shown in the following table: […]

[2] = Total amount of Silybum marianum polyphenols in bottled beer by HPLC; type: physicochemical; details: example 1 mixture dosed at 100 mg silymarin per liter; for Content in DIA beer: bottled DIA beer; for Content in PILS 12% beer: bottled PILS 12% beer; for Content in Non-alcoholic beer: bottled non-alcoholic beer
Protocol: The total amount of Silybum marianum polyphenols in beers was determined by HPLC in bottled beer as a sum of silymarin components.

Row | equilibrium solubility in Lager Radegast Premium [1] [µg/mL] | equilibrium solubility in Non-alcoholic Radegast Birell [1] [µg/mL] | Content in DIA beer [2] [mg/L] | Content in PILS 12% beer [2] [mg/L] | Content in Non-alcoholic beer [2] [mg/L] | solubility thermodynamic ([1]; equilibrium solubility in Lager Radegast Premium) [µg/mL] | solubility thermodynamic ([1]; equilibrium solubility in Non-alcoholic Radegast Birell) [µg/mL] | Molecule
1 | 85.18 | 75.70 | 15.4 | 28.4 | 29.4 |  |  | COc1cc([C@@H]2Oc3cc([C@H]4Oc5cc(O)cc(O)c5C(=O)[C@@H]4O)ccc3O[C@H]2CO)ccc1O [Silybin B]
2 | 436.17 | 400.31 |  |  |  |  |  | silymarin
3 |  |  |  |  |  | 66.1 (≈ 137 µM) | 61.7 (≈ 128 µM) | COc1cc([C@@H]2[C@H]3CO[C@@]4(O)C(=O)[C@@H]2C=C([C@H]2Oc5cc(O)cc(O)c5C(=O)[C@@H]2O)[C@@H]34)ccc1O [Silydianin]
4 | 187.51 | 176.46 | 32.7 | 42.1 | 40.5 |  |  | COc1cc([C@@H]2Oc3c(O)cc([C@H]4Oc5cc(O)cc(O)c5C(=O)[C@@H]4O)cc3[C@H]2CO)ccc1O [Silychristin]

Second part, the molecule before the results:

Row | Molecule | equilibrium solubility in Lager Radegast Premium [1] [µg/mL] | equilibrium solubility in Non-alcoholic Radegast Birell [1] [µg/mL] | Content in DIA beer [2] [mg/L] | Content in PILS 12% beer [2] [mg/L] | Content in Non-alcoholic beer [2] [mg/L] | solubility thermodynamic ([1]; equilibrium solubility in Lager Radegast Premium) [µg/mL] | solubility thermodynamic ([1]; equilibrium solubility in Non-alcoholic Radegast Birell) [µg/mL]
5 | Isosilybin A + B | 54.33 | 48.22 | 20.9 | 15.3 | 12.5 |  | 
6 | COc1cc([C@H]2Oc3cc([C@H]4Oc5cc(O)cc(O)c5C(=O)[C@@H]4O)ccc3O[C@@H]2CO)ccc1O [Silybin A] | 43.03 | 38.22 | 5.7 | 15.1 | 11.5 |  | 
